{
  "source": "patent US7879566B2",
  "about": "“Methods for the identification of modulators of OSGPR114 or OSGPR78 activity, and their use in the treatment of disease” (OSI Pharmaceuticals, Inc., priority 2003, dated 2011)",
  "key": {"[1]": {"test_system": "Shc in HCT-8 cells", "test": "Shc activation, phospho-specific antibody", "assay_type": "cell-based, human", "details": "10 uM", "procedure": "(§1) FIGS. 25A-C. LPA (10 uM) activation of Shc (A), paxillin (B) and SHP-2(C) in HCT-8 cell lysates. Phospho-specific antibodies were used to detect the activated proteins.\n(§2) Many of the growth and survival signaling pathways of cancer cells have been identified. […] The protein She is an adaptor protein and the protein phosphatase SHP-2 are known to link the activation of multiple growth factor receptors to their downstream signaling pathways in cancer cells (For review see Yart et al. (2003) Current Cancer Drug Targets 3:177-192). These proteins are involved in mitogenic signaling by linking growth stimuli to the Ras-mitogen-activated protein kinase cascade and the PI3K survival pathway. […] Additionally, paxillin is a scaffold molecule intricately involved in the regulation of focal adhesions in cancer cells. It is therefore involved in the regulation of cell spreading and motility and is controlled by a multitude of signaling moieties including growth factors, and their downstream signaling molecules. Paxillin recruits these signaling components into specific cell compartments known as focal adhesions (For review, see Schaller (2001) Oncogene 20:6459-72). […] By treating HCT-8 cells with LPA (10 uM), the effect of LPA on the phosphorylation of paxillin was measured using activation state specific antibodies ([…])."}, "[2]": {"test_system": "EGFR in HCT-8 cells", "test": "EGFR transactivation, Western blot with phospho-tyrosine specific antibody", "assay_type": "cell-based, human", "details": "10 μM", "text": "FIG. 24: Western blot showing the ability of LPA to transactivate EGFR in HCT-8 cells, as assessed using a phospho-tyrosine specific antibody.\nThe ability of LPA to phosphorylate ERK1/2 has been extensively described in the literature, and three principal mechanisms have been described for this effect. […] The first of these pathways involves β-arrestin recruitment and activation of Src, which then transactivates the RTK. The second of these pathways involves She which is recruited by LPA and can itself activate membrane-bound metalloproteases (e.g. ADAM10) which causes release of heparin-bound epidermal growth factor (EGF) which can then activate EGF receptor. EGF and activation of the EGF receptor is a well known proliferative pathway for many cell lines. The possibility of LPA causing transactivation of EGFR in HCT-8 cells was tested as the EGFR signaling pathway is known to be present and active in these cells. […] From the LPA-based literature, the potential for LPA to also transactivate other RTKs, such as PDGFR for example, in these cells is a very likely possibility."}, "[3]": {"target": "T1, OSGPR114 (Homo sapiens, UniProt Q9H1C0)", "T1 construct": "expressed in transfected cells; host or cells: engineered yeast (GPA1 replaced by G-alpha chimeras, STE3 deleted; Fus1p-LacZ reporters)", "T1 sequence (Q9H1C0 whole entry)": "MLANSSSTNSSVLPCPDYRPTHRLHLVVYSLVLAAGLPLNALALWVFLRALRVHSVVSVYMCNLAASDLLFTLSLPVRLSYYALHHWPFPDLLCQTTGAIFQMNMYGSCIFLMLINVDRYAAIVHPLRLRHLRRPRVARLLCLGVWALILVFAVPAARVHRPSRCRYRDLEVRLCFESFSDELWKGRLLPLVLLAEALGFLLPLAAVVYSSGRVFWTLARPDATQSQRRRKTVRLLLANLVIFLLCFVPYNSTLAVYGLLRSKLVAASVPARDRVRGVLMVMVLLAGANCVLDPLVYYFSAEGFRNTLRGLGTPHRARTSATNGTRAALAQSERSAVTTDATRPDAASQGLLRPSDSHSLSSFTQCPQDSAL", "test": "FLIPR intracellular calcium assay, CHO-OSGPR114 cells", "assay_type": "cell-based", "details": "FLIPR, read-out: EC50, intracellular calcium response", "procedure": "For example, in one method employed herein, CHO and CHO-114 cells were seeded at a concentration of 50K cells/well in […] growth media in clear, flat-bottom 96-well black assay plates and incubated overnight at 37 C. The growth media is aspirated from the cells and a dye solution ([…]) added to each well. The dye solution consists of 2 mM probenecid, 2 mM HBSS, […] in a growth media minus antibiotics solution. The cells are loaded with the dye for 1 h at 37 C before aspiration and rinsing with wash buffer (20 mM HBSS+2 mM Probenecid). Compound plates are then prepared with 4× compound/control. 150 ul of wash buffer is added to each well. Once the FLIPR is fully calibrated, compound is added to the plate and the release of calcium measured using 0.4 exposure length and a laser set at 0.3W."}, "[4]": {"test_system": "Akt in CHO cell line stably transfected with OSGPR114", "test": "Akt phosphorylation, phospho-specific Akt antibody", "assay_type": "cell-based", "details": "10 uM, 3 minutes", "procedure": "FIG. 26. Effect of LPA (10 μM), EGF (1 μM) and DMSO on levels of phospho-Akt as a in a CHO-K1 cell line stably transfected with OSGPR114.\nThe protein Akt is a well characterized survival pathway for many cancer cells and is a pathway that can be induced by multiple cell growth factors (For review, see Marte and Downward (1997) Trends Biochem. Sci. 22:355-358). […] The cells used for this experiment were a CHO cell line stably transfected with OSGPR114. The cells were treated with vehicle, LPA (10 uM) or EGF (1 uM) for 3 minutes."}, "[5]": {"test_system": "paxillin in HCT-8 cells", "test": "Paxillin phosphorylation, activation state specific antibodies", "assay_type": "cell-based, human", "details": "10 uM", "procedure": "as §1, §2"}, "[6]": {"test_system": "ERK in ASPC-1 cells", "test": "ERK phosphorylation by LPA", "assay_type": "cell-based, human", "details": "10 μM LPA, 3 mins", "procedure": "(§3) FIG. 23: Ability of LPA to phosphorylate ERK in cell lines known to express OSGPR114. 10 μM LPA and 1 μM EGF were used for this experiment, and the cells were stimulated with ligand for 3 mins prior to lysing.\n(§4) One of the principal proliferative signaling pathways is the activation of ERK. […] However, the ability of LPA acting at OSGPR114 to effect ERK is unknown. HCT-8 cells, which express OSGPR114 at high levels, provide one of the best models available. […] This evidence supporting the hypothesis that LPA, likely acting at least in part at OSGPR114, induces ERK activation, a signaling pathway that is known to stimulate cellular proliferation."}, "[7]": {"test_system": "ERK in HCT-8 cells", "test": "ERK phosphorylation by LPA", "assay_type": "cell-based, human", "details": "10 μM LPA, 3 mins", "procedure": "as §3, §4"}, "[8]": {"test_system": "HCT-8 cells", "test": "LPA effect on apoptosis (Apo-One Caspase 3/7)", "assay_type": "cell-based, human", "procedure": "The effect of LPA on cell proliferation (Cell TiterGlo assay, Promega) and induction of apoptosis (Apo-One Caspase 3/7 assay, Promega) was measured in the presence and absence of serum. Cell-titer Glo is an assay that quantitates ATP as a measurement of the number of viable cells in a culture. The assay utilizes a luciferase-based luminescent signal. The Apo-One assay utilizes a profluorescent caspase 3/7 consensus substrate to measure the activation of caspase in the sample. The experiments were conducted in serum-free media as it is known that serum contains high concentrations of LPA (of the order of 10-30 uM). Briefly, cells were plated in 96-well plates at a density of 20,000 cells/well. After 24 h the serum-containing media was removed from the cells and replaced with either serum-containing or serum-free media. After 24 h LPA, at concentrations from 1-100 μM was added to the cells. 24 h later the induction of apoptosis and the level of cellular proliferation was measured using the Cell titer-glo or Caspase 3/7 Apo-One assay kits commercially available from Promega."}, "[9]": {"test_system": "SHP-2 in HCT-8 cells", "test": "SHP-2 activation, phospho-specific antibody", "assay_type": "cell-based, human", "details": "10 uM", "procedure": "as §1, §2"}},
  "data": [
    {"substance": "lysophosphatidic acid [LPA]", "values": [
      {"measurement": "phosphorylation of Shc", "setting": "[1]", "result": "induced the phosphorylation"},
      {"measurement": "EGFR transactivation", "setting": "[2]", "result": "capable of transactivating EGFR"},
      {"measurement": "EC50", "setting": "[3]", "result": 59, "unit": "nM"},
      {"measurement": "phosphorylation of Akt", "setting": "[4]", "result": "stimulate phosphorylation of Akt"},
      {"measurement": "phosphorylated paxillin", "setting": "[5]", "result": "highly significant increase in phosphorylated paxillin"},
      {"measurement": "ERK activation", "setting": "[6]", "result": "stimulate ERK"},
      {"measurement": "ERK activation", "setting": "[7]", "result": "stimulate ERK"},
      {"measurement": "apoptosis", "setting": "[8]; presence of 10% FCS", "result": "no statistically significant effects"},
      {"measurement": "apoptosis induced through serum starving", "setting": "[8]; serum free conditions, LPA 1-100 μM, 24 h", "result": "reversed apoptosis"},
      {"measurement": "phosphorylation of SHP-2", "setting": "[9]", "result": "induced the phosphorylation"}
    ]}
  ]
}
